From ChEMBL document CHEMBL4325895, “Discovery and structure-activity-relationship study of novel imidazole cyclopropyl amine analogues for mutant isocitric dehydrogenase 1 (IDH1) inhibitors” (Bioorg Med Chem Lett, 2018) come the findings set out here.

Data set [1] can be described thus: AUC in CD-1 mouse at 1 mg/kg, iv by mass spectrometric analysis. It counts as ADME, organism-based. Conditions: in vivo; call rule not given here.
Data set [2] is described as follows: Clearance in CD-1 mouse at 1 mg/kg, iv by mass spectrometric analysis. Type of data set: ADME, organism-based. As to conditions: in vivo.
Data set [3] is described as follows: Stability in human liver microsomes assessed as parent compound remaining at 0.01 uM after 60 mins by LC-MS/MS analysis. It counts as ADME, Microsome. Conditions: read-out: Stability. (In general: Liver microsomes are a subcellular fraction often used to study metabolism.)
The nature of data set [4]: Volume of distribution at steady state in CD-1 mouse at 1 mg/kg, iv by mass spectrometric analysis. It counts as ADME, organism-based. As to conditions: in vivo.
Data set [5] in a line: Intrinsic clearance in human liver microsomes assessed per gram of protein at 0.1 uM after 60 mins in presence of NADPH by LC-MS/MS analysis. It counts as ADME, Microsome. As to conditions: 1 h.
Data set [6] addresses Isocitrate dehydrogenase [NADP] cytoplasmic (Homo sapiens, UniProt O75874, R132C). The experiment in a line: Inhibition of IDH1 R132C mutant in human HT1080 cells assessed as inhibition of 2HG production after 48 hrs by LC-MS/MS analysis. Type of data set: cell-based.
Data set [7] deals with Isocitrate dehydrogenase [NADP] cytoplasmic (Homo sapiens, UniProt O75874, R132H). The experiment in a line: Inhibition of IDH1 (unknown origin) R132H mutant using alpha-KG as substrate after 60 mins in presence of NADPH by resazurin dye-based fluorescence assay.
Isocitrate dehydrogenase [NADP] cytoplasmic (Homo sapiens, UniProt O75874, R132H), sequence (O75874 2-414 R132H limits assumed): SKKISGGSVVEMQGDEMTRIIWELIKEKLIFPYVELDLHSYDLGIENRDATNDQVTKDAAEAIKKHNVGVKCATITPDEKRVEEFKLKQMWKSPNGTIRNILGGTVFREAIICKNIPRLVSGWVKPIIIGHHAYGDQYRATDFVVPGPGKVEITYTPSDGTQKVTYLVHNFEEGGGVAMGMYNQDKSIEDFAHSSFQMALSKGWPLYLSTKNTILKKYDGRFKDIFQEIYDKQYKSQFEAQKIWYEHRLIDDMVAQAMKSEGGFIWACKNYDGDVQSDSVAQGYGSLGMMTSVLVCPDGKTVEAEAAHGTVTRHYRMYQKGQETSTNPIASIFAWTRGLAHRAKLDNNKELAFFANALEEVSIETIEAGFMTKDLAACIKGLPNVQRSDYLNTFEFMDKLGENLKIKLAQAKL
The nature of data set [8]: Intrinsic clearance in mouse liver microsomes assessed per gram of protein at 0.1 uM after 60 mins in presence of NADPH by LC-MS/MS analysis. Type of data set: ADME, Microsome. Conditions: 1 h.
Data set [9] is described as follows: Intrinsic clearance in rat liver microsomes assessed per gram of protein at 0.1 uM after 60 mins in presence of NADPH by LC-MS/MS analysis. It counts as ADME, Microsome. As to conditions: 1 h.
Data set [10] is described as follows: AUC in CD-1 mouse at 5 mg/kg, po administered via gavage by mass spectrometric analysis. Type of data set: ADME, organism-based. As to conditions: in vivo.
A short description of data set [11]: Oral bioavailability in CD-1 mouse at 5 mg/kg administered via gavage by mass spectrometric analysis. Type of data set: ADME, organism-based. Conditions: in vivo.
Data set [12] can be described thus: Dose normalized AUC in CD-1 mouse at 5 mg/kg, po administered via gavage by mass spectrometric analysis. Conditions: in vivo. It counts as ADME, organism-based.
A short description of data set [13]: Drug level in human liver microsomes treated with (R)-3-(2-((1-(1-(3-chloro-4-fluorophenyl)-1H-imidazol-4-yl)cyclopropyl)amino)pyrimidin-4-yl)-4-((S)-1-fluoroethyl)oxazolidin-2-one at 0.01 uM after 60 mins by LC-MS/MS analysis. It counts as ADME, Microsome.

Isocitrate dehydrogenase [NADP] cytoplasmic (Homo sapiens, UniProt O75874, R132C), sequence (O75874 2-414 R132C limits assumed): as the sequence (O75874 2-414 R132H limits assumed) above, with H131C counted along it

The AUC is concentration integrated over time. The term clearance denotes the rate of elimination divided by the concentration. High values mean a high capacity for elimination, low ones a low capacity for elimination. By Vd is commonly meant a proportionality between amount in the body and measured concentration, not a real space. Low readings indicate confinement near the circulation, high ones extensive tissue distribution. Usually IC50 stands for the concentration that inhibits the measured activity by half. In general, bioavailability refers to the share of a dose that reaches the circulation, judged against a reference dose that is usually intravenous. A high value points to much systemic uptake. Regarding `C[C@H](F)[C@H]1COC(=O)N1c1ccnc(NC2(c3cn(-c4ccc(F)c(Cl)c4)cn3)CC2)n1`, the AUC in [1] is 40 ng·h/mL; in [10], 25 ng·h/mL. The same compound showed a clearance in [2] of 172 mL/min/kg. Besides, the remaining at 1 h, 0.01 µM in data set [3] was 22%. Moreover, the Vd in [4] is 1.2 L/kg. In addition, the CLint in [5] was 125 mL/min/g; in data set [8] it was 185 mL/min/g; in data set [9], 133 mL/min/g. Besides, the IC50 in [6] turned out to be 12 nM; in data set [7], 25 nM. Besides, the bioavailability in data set [11] turned out to be 20%.
For `C[C@H](F)[C@H]1COC(=O)N1c1ccnc(NC2(c3cn(-c4ccccc4C(F)(F)F)cn3)CC2)n1`, the IC50 in data set [7] is 112 nM.
For the compound `C[C@H](F)[C@H]1COC(=O)N1c1ccnc(NC2(c3cn(-c4ccc(F)c(Cl)c4)cn3)CCC2)n1`, the CLint in data set [5] was 195 mL/min/g; in [8], 505 mL/min/g; in [9], 372 mL/min/g. For the same compound, the values for the IC50 in data set [6] and in data set [7] were 21 nM and 40 nM, respectively.
Consider `C[C@H](F)[C@H]1COC(=O)N1c1ccnc(NC2(c3cn(-c4cccc(Cl)c4)cn3)CC2)n1`, for which the IC50 came to 23 nM in data set [6] and 42 nM in data set [7].
As to `C[C@H](F)[C@H]1COC(=O)N1c1ccnc(NC2(c3cn(-c4cccc(C(F)(F)F)c4)cn3)CC2)n1`, the CLint worked out at 153 mL/min/g in [5], 430 mL/min/g in [8] and 312 mL/min/g in [9]. Also, the IC50 in data set [6] amounted to 10 nM; in [7] it was 32 nM.
In the case of `C[C@H](F)[C@H]1COC(=O)N1c1cc(Cl)nc(NC2(c3cn(-c4ccc(F)c(Cl)c4)cn3)CC2)n1`, the CLint was 110 mL/min/g in data set [5], 155 mL/min/g in data set [8] and 123 mL/min/g in data set [9]. Also, the IC50 in [6] was found to be 25 nM; in [7], 32 nM.
For the compound `Cc1c(C2(Nc3nccc(N4C(=O)OC[C@@H]4[C@H](C)F)n3)CC2)ncn1-c1cccc(C(F)(F)F)c1`, the results for the half-maximal inhibitory concentration (IC50) in data set [6] and in [7] were 38 nM and 56 nM, respectively.
As to `C[C@H](F)[C@H]1COC(=O)N1c1ccnc(NC2(c3cn(-c4cc(Cl)cc(Cl)c4)cn3)CC2)n1`, the IC50 in [6] turned out to be 21 nM; in [7], 36 nM.
Turning to `C[C@H](F)[C@H]1COC(=O)N1c1ccnc(NC2(c3cn(-c4ccc(C(F)(F)F)cc4)cn3)CC2)n1`, the IC50 in [6] is 32 nM; in data set [7], 65 nM.
With `C[C@H](F)[C@H]1COC(=O)N1c1ccnc(NC2(c3cn(-c4ccc(Cl)cc4)cn3)CC2)n1`, the results for the IC50 in [6] and in data set [7] were 56 nM and 54 nM, respectively.
Turning to `C[C@H](F)[C@H]1COC(=O)N1c1nc(NC2(c3cn(-c4ccc(F)c(Cl)c4)cn3)CC2)ncc1F`, the AUC in [1] is 257 ng·h/mL; in data set [10], 153 ng·h/mL. The compound further showed a clearance in data set [2] of 65 mL/min/kg. In [4], this compound had a Vd of 0.6 L/kg. In addition, the CLint in data set [5] came to 55 mL/min/g; in data set [8] it was 95 mL/min/g; in [9], 89 mL/min/g. Further, the IC50 in data set [6] amounted to 18 nM; in [7], 35 nM. In addition, the AUC/dose in data set [12] is listed as 31 ng/mL.hr/(mg/kg). The same compound came in with a bioavailability in [11] of 12%.
Take `C[C@H](F)[C@H]1COC(=O)N1c1ccnc(NC2(c3ncn(-c4cccc(C(F)(F)F)c4)c3C#N)CC2)n1`: the results for the IC50 in data set [6] and in [7] were 55 nM and 85 nM, respectively.
With `C[C@H](F)[C@H]1COC(=O)N1c1ccnc(NC2(c3cn(-c4cc(C(F)(F)F)ccn4)cn3)CC2)n1`, the IC50 in [7] stood at 250 nM.
In the case of `C[C@H](F)[C@H]1COC(=O)N1c1ccnc(NC2(c3ncn(-c4cccc(C(F)(F)F)c4)n3)CC2)n1`, in data set [7], the IC50 amounted to 831 nM.
Take `O=C1OC[C@H]([C@@H](F)CO)N1c1cc(Cl)nc(NC2(c3cn(-c4ccc(F)c(Cl)c4)cn3)CC2)n1`: in [13], the Drug uptake result is recorded as “Active”.
As for `C[C@H](F)[C@H]1COC(=O)N1c1ccnc(NC2(c3cn(-c4cc(F)cc(Cl)c4)cn3)CC2)n1`, the CLint in [5] stood at 350 mL/min/g; in data set [8] it was 567 mL/min/g; in [9], 240 mL/min/g. Further, the IC50 in data set [6] turned out to be 18 nM; in data set [7], 27 nM.
As to `C[C@H](F)[C@H]1COC(=O)N1c1ccnc(NC2(c3ncn(-c4cccc(C(F)(F)F)c4)c3Cl)CC2)n1`, the IC50 stood at 26 nM in [6] and 41 nM in data set [7].
In the case of `C[C@H](F)[C@H]1COC(=O)N1c1ccnc(NC2(c3cn(-c4cncc(C(F)(F)F)c4)cn3)CC2)n1`, the IC50 in data set [7] is 152 nM.
As for `C[C@H](F)[C@H]1COC(=O)N1c1ccnc(NC2(c3cn(-c4cccc(C(F)(F)F)n4)cn3)CC2)n1`, the IC50 in data set [7] came out at 266 nM.
Take `CC(F)(F)[C@H]1COC(=O)N1c1ccnc(NC2(c3cn(-c4ccc(F)c(Cl)c4)cn3)CC2)n1`: the IC50 in data set [7] was found to be 721 nM.
Regarding `C[C@H](F)[C@H]1COC(=O)N1c1ccnc(NC2(c3cn(-c4ccnc(C(F)(F)F)c4)cn3)CC2)n1`, in [7], the IC50 amounted to 220 nM.
